# Measurements as given in patent US10800782B2, “Inhibitors of cellular metabolic processes” (Agios Pharmaceuticals, Inc., priority 2016, dated 2020).
# Molecular target: T1, MAT2A (Homo sapiens, UniProt P31153)
# T1 construct: His6; made in house; host or cells: SF9 insect cells
# Assay: MAT2A biochemical assay (colorimetric inorganic phosphate detection, PiColorLock)
# Details: recombinant His6-tagged MAT2A 1 μg/ml; 60 minutes preincubation at 25° C.; L-Met 80 μM, ATP 100 μM; 60 minutes reaction; read at 623 nm; read-out: MAT2A Inhibition Score
# Method in brief: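 His6-tagged human MAT2A (SF9-expressed, 1 μg/ml) converting L-Met and ATP to SAM in Tris pH 8.0, 50 mM KCl, 15 mM MgCl2, 300 uM EDTA, 0.005% BSA; 60 min at room temperature. Released phosphate detected colorimetrically with malachite green phosphomolybdate. Ten-point, three-fold compound dilution series.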
# T1 sequence (P31153 whole entry): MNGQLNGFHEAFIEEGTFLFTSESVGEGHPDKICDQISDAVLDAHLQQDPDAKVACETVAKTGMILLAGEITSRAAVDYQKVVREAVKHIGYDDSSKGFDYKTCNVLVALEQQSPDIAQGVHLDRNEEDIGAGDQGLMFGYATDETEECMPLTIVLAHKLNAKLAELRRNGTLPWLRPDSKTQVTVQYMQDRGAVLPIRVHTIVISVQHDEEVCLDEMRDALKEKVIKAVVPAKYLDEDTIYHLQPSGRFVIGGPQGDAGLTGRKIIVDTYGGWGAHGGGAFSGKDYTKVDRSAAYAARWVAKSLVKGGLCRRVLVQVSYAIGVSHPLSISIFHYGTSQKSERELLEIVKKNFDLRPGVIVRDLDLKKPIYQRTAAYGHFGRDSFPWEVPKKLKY
row,Structure (SMILES),IC50
1,"COc1ccc(-c2c(Nc3cnncn3)[nH]c3c(-c4ccccc4)c(-c4ccccc4)nn3c2=O)cc1 [Compound 133, 5-((1,2,4-triazin-5-yl)amino)-6-(4-methoxyphenyl)-2,3-diphenylpyrazolo[1,5-a]pyrimidin-7(4H)-one]",< 100 nM
2,"COc1ccc(-c2nn3c(=O)c(-c4ccc5ncccc5c4)c(C)[nH]c3c2-c2ccccc2)cc1 [Compound 243, 2-(4-methoxyphenyl)-5-methyl-3-phenyl-6-(quinolin-6-yl)pyrazolo[1,5-a]pyrimidin-7(4H)-one]",1000 to 10000 nM
3,"CN1CCOc2ccc(-c3c(Nc4ccccn4)[nH]c4c(-c5ccccc5)c(-c5ccccc5)nn4c3=O)cc21 [Compound 198, 6-(4-methyl-3,4-dihydro-2H-benzo[b][1,4]oxazin-6-yl)-2,3-diphenyl-5-(pyridin-2-ylamino)pyrazolo[1,5-a]pyrimidin-7(4H)-one]",< 100 nM
4,"COc1ccc(-c2c(Nc3nccnc3N)[nH]c3c(-c4ccccc4)c(-c4ccccc4)nn3c2=O)cc1 [Compound 128, 5-((3-aminopyrazin-2-yl)amino)-6-(4-methoxyphenyl)-2,3-diphenylpyrazolo[1,5-a]pyrimidin-7(4H)-one]",< 100 nM
5,"COc1ccc(-c2c(Nc3ncc[nH]3)[nH]c3c(-c4ccccc4)c(-c4ccccc4)nn3c2=O)cc1 [Compound 142, 5-((1H-imidazol-2-yl)amino)-6-(4-methoxyphenyl)-2,3-diphenylpyrazolo[1,5-a]pyrimidin-7(4H)-one]",< 100 nM
6,"COc1ccc(-c2c(CN)[nH]c3c(C4=CCCCC4)c(-c4ccccc4)nn3c2=O)cc1 [Compound 232, 5-(aminomethyl)-3-(cyclohex-1-en-1-yl)-6-(4-methoxyphenyl)-2-phenylpyrazolo[1,5-a]pyrimidin-7(4H)-one]",< 100 nM
7,"O=c1c(-c2ccc3ncccc3c2)c(Nc2ccccn2)[nH]c2c(-c3ccccc3)c(-c3ccccc3)nn12 [Compound 168, 2,3-diphenyl-5-(pyridin-2-ylamino)-6-(quinolin-6-yl)pyrazolo[1,5-a]pyrimidin-7(4H)-one]",< 100 nM
8,"COc1ccc(-c2c(Nc3ccnc(O)n3)[nH]c3c(-c4ccccc4)c(-c4ccccc4)nn3c2=O)cc1 [Compound 119, 5-(2-hydroxypyrimidin-4-ylamino)-6-(4-methoxyphenyl)-2,3-diphenyl-pyrazolo[1,5-a]pyrimidin-7(4H)-one]",< 100 nM
9,"Cc1[nH]c2c(-c3ccccc3)c(-c3ccnc(Cl)c3)nn2c(=O)c1-c1ccc2ncccc2c1 [Compound 350, 2-(2-chloropyridin-4-yl)-5-methyl-3-phenyl-6-(quinolin-6-yl)pyrazolo[1,5-a]pyrimidin-7(4H)-one]",1000 to 10000 nM
10,"NCc1[nH]c2c(C3=CCCCC3)c(-c3ccccc3)nn2c(=O)c1-c1ccc2c(c1)OCCO2 [Compound 226, 5-(aminomethyl)-3-(cyclohex-1-en-1-yl)-6-(2,3-dihydrobenzo[b][1,4]dioxin-6-yl)-2-phenylpyrazolo[1,5-a]pyrimidin-7(4H)-one]",< 100 nM
11,"NCCn1cc(-c2ccc3ncccc3c2)c(=O)n2nc(-c3ccccc3)c(-c3ccccc3)c12 [Compound 353, 4-(2-aminoethyl)-2,3-diphenyl-6-(quinolin-6-yl)pyrazolo[1,5-a]pyrimidin-7(4H)-one]",1000 to 10000 nM
12,"Cc1[nH]c2c(C3=CCCC3)c(-c3ccccc3)nn2c(=O)c1-c1ccc2ncccc2c1 [Compound 215, 3-(cyclopent-1-en-1-yl)-5-methyl-2-phenyl-6-(quinolin-6-yl)pyrazolo[1,5-a]pyrimidin-7(4H)-one]",< 100 nM
13,"Cc1c(-c2ccc(O)cc2)c(=O)n2nc(-c3ccccc3)c(-c3cccs3)c2n1C [Compound 271, 6-(4-hydroxyphenyl)-4,5-dimethyl-2-phenyl-3-(thiophen-2-yl)pyrazolo[1,5-a]pyrimidin-7(4H)-one]",< 100 nM
14,"COc1ccc(-c2c(Nc3cc[nH]n3)[nH]c3c(-c4ccccc4)c(-c4ccccc4)nn3c2=O)cc1 [Compound 182, 5-((1H-pyrazol-3-yl)amino)-6-(4-methoxyphenyl)-2,3-diphenylpyrazolo[1,5-a]pyrimidin-7(4H)-one]",< 100 nM
15,"COc1ccc(-c2c(Nc3cccnc3)[nH]c3c(-c4ccccc4)c(-c4ccccc4)nn3c2=O)cc1 [Compound 103, 6-(4-methoxyphenyl)-2,3-diphenyl-5-(pyridin-3-ylamino)pyrazolo[1,5-a]pyrimidin-7(4H)-one]",< 100 nM
16,"COc1ccc(-c2c(Nc3nnc(C)s3)[nH]c3c(-c4ccccc4)c(-c4ccccc4)nn3c2=O)cc1 [Compound 285, 6-(4-methoxyphenyl)-5-((5-methyl-1,3,4-thiadiazol-2-yl)amino)-2,3-diphenylpyrazolo[1,5-a]pyrimidin-7(4H)-one]",< 100 nM
17,"O=c1c(-c2ccc(O)cc2)c(Nc2cnccn2)[nH]c2c(C3=CCCCC3)c(-c3ccccc3)nn12 [Compound 194, 3-cyclohexenyl-6-(4-hydroxyphenyl)-2-phenyl-5-(pyrazin-2-ylamino)pyrazolo[1,5-a]pyrimidin-7(4H)-one]",< 100 nM
18,"COc1ccc(-c2c(C)[nH]c3c(C4=CCCOC4)c(-c4ccccc4)nn3c2=O)cc1 [Compound 219, 3-(5,6-dihydro-2H-pyran-3-yl)-6-(4-methoxyphenyl)-5-methyl-2-phenylpyrazolo[1,5-a]pyrimidin-7(4H)-one]",< 100 nM
19,"O=c1c(-c2ccc3ncccc3c2)c(Nc2ccon2)[nH]c2c(C3=CCCCC3)c(-c3ccccc3)nn12 [Compound 176, 3-cyclohexenyl-5-(isoxazol-3-ylamino)-2-phenyl-6-(quinolin-6-yl)pyrazolo[1,5-a]pyrimidin-7(4H)-one]",< 100 nM

# Now from value to compound:
row,IC50,Structure (SMILES)
1,< 100 nM,"O=c1c(-c2ccc3ncccc3c2)c[nH]c2c(-c3ccccc3)c(-c3ccccc3)nn12 [Compound 244, 2,3-diphenyl-6-(quinolin-6-yl)pyrazolo[1,5-a]pyrimidin-7(4H)-one]"
2,100 to 1000 nM,"COc1ccc(-c2c(C)[nH]c3c(-c4ccccc4)c(-c4ccccc4)nn3c2=O)cn1 [Compound 333, 6-(6-methoxypyridin-3-yl)-5-methyl-2,3-diphenylpyrazolo[1,5-a]pyrimidin-7(4H)-one]"
3,< 100 nM,"COc1ccc(-c2c(Nc3nccn3C)[nH]c3c(-c4ccccc4)c(-c4ccccc4)nn3c2=O)cc1 [Compound 141, 6-(4-methoxyphenyl)-5-(1-methyl-1H-imidazol-2-ylamino)-2,3-diphenylpyrazolo[1,5-a]pyrimidin-7(4H)-one]"
4,< 100 nM,"COc1ccc(-c2c(Nc3cnccn3)[nH]c3c(C4=CCCCC4)c(-c4ccccc4)nn3c2=O)cc1 [Compound 158, 3-cyclohexenyl-6-(4-methoxyphenyl)-2-phenyl-5-(pyrazin-2-ylamino) pyrazolo[1,5-a]pyrimidin-7(4H)-one]"
5,100 to 1000 nM,"Cc1[nH]c2c(-c3ccccc3)c(-c3ccccc3)nn2c(=O)c1C1=CCC(O)CC1 (stereo not shown) [Compound 337, 6-(4-hydroxycyclohex-1-en-1-yl)-5-methyl-2,3-diphenylpyrazolo[1,5-a]pyrimidin-7(4H)-one]"
6,100 to 1000 nM,"Cc1[nH]c2c(N3CCCCC3)c(-c3ccccc3)nn2c(=O)c1C1CC1 [Compound 298, 6-cyclopropyl-5-methyl-2-phenyl-3-(piperidin-1-yl)pyrazolo[1,5-a]pyrimidin-7(4H)-one]"
7,< 100 nM,"COc1ccc(-c2c(CNc3nc[nH]n3)[nH]c3c(-c4ccccc4)c(-c4ccccc4)nn3c2=O)cc1 [Compound 264, 5-(((1H-1,2,4-triazol-3-yl)amino)methyl)-6-(4-methoxyphenyl)-2,3-diphenylpyrazolo[1,5-a]pyrimidin-7(4H)-one]"
8,< 100 nM,"COc1ccc(-c2c(Nc3ncns3)[nH]c3c(C4=CCCCC4)c(-c4ccccc4)nn3c2=O)cc1 [Compound 166, 5-((1,2,4-thiadiazol-5-yl)amino)-3-(cyclohex-1-en-1-yl)-6-(4-methoxyphenyl)-2-phenylpyrazolo[1,5-a]pyrimidin-7(4H)-one]"
9,< 100 nM,"Cc1[nH]c2c(N3CCCCC3)c(-c3ccccc3)nn2c(=O)c1-c1cn[nH]c1 [Compound 266, 5-methyl-2-phenyl-3-(piperidin-1-yl)-6-(1H-pyrazol-4-yl)pyrazolo[1,5-a]pyrimidin-7(4H)-one]"
10,< 100 nM,"COc1ccc(-c2c(Nc3ccncn3)[nH]c3c(C4=CCCCC4)c(-c4ccccc4)nn3c2=O)cc1 [Compound 155, 3-(cyclohex-1-en-1-yl)-6-(4-methoxyphenyl)-2-phenyl-5-(pyrimidin-4-ylamino)pyrazolo[1,5-a]pyrimidin-7(4H)-one]"
11,100 to 1000 nM,"Cc1[nH]c2c(N3CCCCC3)c(-c3ccccc3)nn2c(=O)c1-c1ccc(O)nc1 [Compound 309, 6-(6-hydroxypyridin-3-yl)-5-methyl-2-phenyl-3-(piperidin-1-yl)pyrazolo[1,5-a]pyrimidin-7(4H)-one]"
12,< 100 nM,"O=c1c(-c2ccc3ncccc3c2)c(O)[nH]c2c(-c3ccccc3)c(-c3ccccc3)nn12 [Compound 275, 5-hydroxy-2,3-diphenyl-6-(quinolin-6-yl)pyrazolo[1,5-a]pyrimidin-7(4H)-one]"
13,< 100 nM,"Cc1[nH]c2c(-c3ccccc3)c(-c3ccccc3)nn2c(=O)c1-c1ccc(O)c(Cl)c1 [Compound 239, 6-(3-chloro-4-hydroxyphenyl)-5-methyl-2,3-diphenylpyrazolo[1,5-a]pyrimidin-7(4H)-one]"
14,< 100 nM,"Cc1[nH]c2c(C3CCCCC3)c(-c3ccccc3)nn2c(=O)c1-c1ccc2ncccc2c1 [Compound 277, 3-cyclohexyl-5-methyl-2-phenyl-6-(quinolin-6-yl)pyrazolo[1,5-a]pyrimidin-7(4H)-one]"
15,1000 to 10000 nM,"Cc1[nH]c2c(-c3ccccc3)c(-c3ccc(Cl)cc3)nn2c(=O)c1-c1ccc2ncccc2c1 [Compound 347, 2-(4-chlorophenyl)-5-methyl-3-phenyl-6-(quinolin-6-yl)pyrazolo[1,5-a]pyrimidin-7(4H)-one]"
